Test results as given in patent US8354403B2, “Pyrrolidine derived beta 3 adrenergic receptor agonists” (Merck Sharp & Dohme Corp., priority 2009, dated 2013).

target: T1, human β3 adrenergic receptor (Homo sapiens, UniProt P13945); assay: Beta-3 agonist in vitro functional assay: cAMP production (LANCE TR-FRET) in CHO cells stably transfected with the cloned β3 receptor; type: cell-based; conditions: Table 4; cAMP, CHO cells; read-out: Human β3 agonist functional activity
T1 construct: expressed in transfected cells; host or cells: Chinese hamster ovary (CHO) cells, stably transfected
Procedure: Chinese hamster ovary (CHO) cells, stably transfected with the cloned β-adrenergic receptor (β1, β2 or β3) are harvested after 3 days of subculturing. Harvesting of cells is done with Enzyme-free Dissociation Media (Specialty Media). Cells are then counted and resuspended in assay buffer (Hank's Balanced salt solution supplemented with 5 mM HEPES, […]) containing a phosphodiesterase inhibitor (IBMX, 0.6 mM). The reaction is initiated by mixing 6,000 cells in 6 μL with 6 μL Alexa Fluor labeled cAMP antibody (LANCE™ kit) which is then added to an assay well containing 12 μL of compound (diluted in assay buffer to 2× final concentration). The reaction proceeds for 30 minutes at RT and is terminated by the addition of 24 ul detection buffer (LANCE™ kit). The assay plate is then incubated for 1 h at RT and time-resolved fluorescence measured on a Perkin Elmer Envision reader or equivalent. The unknown cAMP level is determined by comparing fluorescence levels to a cAMP standard curve.
The non-selective, full agonist β-adrenergic ligand isoproterenol is used at all three receptors to determine maximal stimulation. […] Data are analyzed using Microsoft Excel and Graphpad Prism or an internally developed data analysis software package.

T1 sequence (P13945 whole entry): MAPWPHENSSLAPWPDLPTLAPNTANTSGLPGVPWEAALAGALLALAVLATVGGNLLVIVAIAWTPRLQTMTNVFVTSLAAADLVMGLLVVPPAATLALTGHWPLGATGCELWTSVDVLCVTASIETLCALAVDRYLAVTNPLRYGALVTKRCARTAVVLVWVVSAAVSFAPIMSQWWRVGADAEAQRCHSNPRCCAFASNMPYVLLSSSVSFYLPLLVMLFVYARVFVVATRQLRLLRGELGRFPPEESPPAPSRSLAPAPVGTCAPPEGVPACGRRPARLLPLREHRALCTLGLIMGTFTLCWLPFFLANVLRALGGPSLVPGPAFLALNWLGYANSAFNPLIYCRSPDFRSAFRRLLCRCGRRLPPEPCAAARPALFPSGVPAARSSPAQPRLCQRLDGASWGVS

EC50 [nM] | Compound
100 to 999 | O=C(c1ccc(C[C@@H]2CC[C@H]([C@H](O)c3ccccc3)N2)cc1)N1Cc2cnn(C(F)(F)F)c2C1 [Example 30]
10 to 99.9 | O=C(c1ccc(C[C@@H]2CC[C@H]([C@H](O)c3ccccc3)N2)cc1)N1CC2CC(n3cnnn3)CC2C1 (stereo partly shown) [Example 23]
999 to 3000 | Cc1noc(C2CCCCN2C(=O)c2ccc(C[C@@H]3CC[C@H]([C@H](O)c4ccccc4)N3)cc2)n1 (stereo partly shown) [Example 49]
100 to 999 | CN(C)C1CCN(C(=O)c2ccc(C[C@@H]3CC[C@H]([C@H](O)c4ccccc4)N3)cc2)C1 (stereo partly shown) [Example 9]
100 to 999 | O=C(c1ccc(C[C@@H]2CC[C@H]([C@H](O)c3ccccc3)N2)cc1)N1CCCCC1c1nccs1 (stereo partly shown) [Example 50]
10 to 99.9 | O=C(c1ccc(C[C@@H]2CC[C@H]([C@H](O)c3ccccc3)N2)cc1)N1CC2CC(n3ncnn3)CC2C1 (stereo partly shown) [Example 19]

same assay, conditions: Table 5; cAMP, CHO cells; read-out: Human β3 agonist functional activity

EC50 [nM] | Compound
10 to 99.9 | CC(c1ccccn1)C1CCN(C(=O)c2ccc(C[C@@H]3CC[C@H]([C@H](O)c4ccccc4)N3)cc2)CC1 (stereo partly shown) [Example 164]
100 to 999 | COC(=O)c1cc(OC2CCN(C(=O)c3ccc(C[C@@H]4CC[C@H]([C@H](O)c5ccccc5)N4)cc3)CC2)no1 [Example 159]
10 to 99.9 | O=C(c1ccc(C[C@@H]2CC[C@H]([C@H](O)c3ccccc3)N2)cc1)N1CCC(Cn2ncccc2=O)CC1 [Example 148]
100 to 999 | O=C(c1ccc(C[C@@H]2CC[C@H]([C@H](O)c3ccccc3)N2)cc1)N1CCC(c2ncc(-c3ccccc3)[nH]2)CC1 [Example 79]
10 to 99.9 | O=C(c1ccc(C[C@@H]2CC[C@H]([C@H](O)c3ccccc3)N2)cc1)N1CCC(S(=O)(=O)c2ccccc2)CC1 [Example 127]
100 to 999 | O=C(c1ccc(C[C@@H]2CC[C@H]([C@H](O)c3ccccc3)N2)cc1)N1CCC(n2c(=O)[nH]c3ccccc32)CC1 [Example 74]
10 to 99.9 | O=C(c1ccc(C[C@@H]2CC[C@H]([C@H](O)c3cccnc3)N2)cc1)N1CCC(n2cc(-c3ccccc3)[nH]c2=O)CC1 [Example 85]
10 to 99.9 | CC(C1CCN(C(=O)c2ccc(C[C@@H]3CC[C@H]([C@H](O)c4ccccc4)N3)cc2)CC1)n1ncccc1=O (stereo partly shown) [Example 165]
10 to 99.9 | O=C(c1ncco1)C1CCN(C(=O)c2ccc(C[C@@H]3CC[C@H]([C@H](O)c4ccccc4)N3)cc2)CC1 [Example 120]

same assay, conditions: Table 7; cAMP, CHO cells; ranges as given for Tables 6 and 7; read-out: Human β3 agonist functional activity

EC50 [nM] | Compound
10 to 99.9 | N#CC1(c2cnccn2)C2CN(C(=O)c3ccc(C[C@@H]4CC[C@H]([C@H](O)c5ccccc5)N4)cc3)CC21 (stereo partly shown) [Example 235]
10 to 99.9 | N#CC1(c2ccccn2)C2CN(C(=O)c3ccc(C[C@@H]4CC[C@H]([C@H](O)c5ccccc5)N4)cc3)CC21 (stereo partly shown) [Example 238]

same assay, conditions: Table 8; Beta-3 agonist in vitro functional assay; read-out: Human β3 agonist functional activity

EC50 [nM] | Compound
10 to 99.9 | Cc1ccc(CC2(O)CCN(C(=O)c3ccc(C[C@@H]4CC[C@H]([C@H](O)c5ccccc5)N4)cc3)CC2)cc1 [Example 246]
10 to 99.9 | COC(=O)C1CC2(CCN(C(=O)c3ccc(C[C@@H]4CC[C@H]([C@H](O)c5ccccc5)N4)cc3)CC2)c2ccccc21 (stereo partly shown) [Example 320]
100 to 999 | O=C(c1ccc(C[C@@H]2CC[C@H]([C@H](O)c3ccccc3)N2)cc1)N1CCC2(CC1)CC(c1ccc(F)cc1)CO2 (stereo partly shown) [Example 310]
100 to 999 | CN1CCC2(CCN(C(=O)c3ccc(C[C@@H]4CC[C@H]([C@H](O)c5ccccc5)N4)cc3)CC2)C1=O [Example 251]
1 to 9.9 | O=C(c1ccc(C[C@@H]2CC[C@H]([C@H](O)c3ccccc3)N2)cc1)N1CCC2(CCNC2)CC1 [Example 306]
1 to 9.9 | COc1ccc2c(c1)C(=O)CC1(CCN(C(=O)c3ccc(C[C@@H]4CC[C@H]([C@H](O)c5ccccc5)N4)cc3)CC1)S2 [Example 328]
10 to 99.9 | O=C1NC2(CCN(C(=O)c3ccc(C[C@@H]4CC[C@H]([C@H](O)c5ccccc5)N4)cc3)CC2)Oc2ccccc21 [Example 332]
10 to 99.9 | O=C1OC2(CCN(C(=O)c3ccc(C[C@@H]4CC[C@H]([C@H](O)c5ccccc5)N4)cc3)CC2)c2ncccc21 [Example 287]

same assay, conditions: Table 9; Beta-3 agonist in vitro functional assay; read-out: Human β3 agonist functional activity

EC50 [nM] | Compound
1 to 9.9 | O=C(c1ccc(C[C@@H]2CC[C@H]([C@H](O)c3ccccc3)N2)cc1)N1CCN(Cc2cnn(-c3ccccc3)n2)CC1 [Example 408]
10 to 99.9 | C[C@@H](c1ccccn1)N1CCN(C(=O)c2ccc(C[C@@H]3CC[C@H]([C@H](O)c4ccccc4)N3)cc2)CC1 [Example 431]
10 to 99.9 | Cc1nonc1N1CCN(C(=O)c2ccc(C[C@@H]3CC[C@H]([C@H](O)c4ccccc4)N3)cc2)CC1 [Example 380]
10 to 99.9 | O=C(c1ccc(C[C@@H]2CC[C@H]([C@H](O)c3cccnc3)N2)cc1)N1CCN(c2nccc(-c3ccccc3)n2)CC1 [Example 377]
10 to 99.9 | CC(C)n1nnnc1CN1CCN(C(=O)c2ccc(C[C@@H]3CC[C@H]([C@H](O)c4ccccc4)N3)cc2)CC1 [Example 400]
100 to 999 | O=C(O)COc1cccnc1N1CCN(C(=O)c2ccc(C[C@@H]3CC[C@H]([C@H](O)c4ccccc4)N3)cc2)CC1 [Example 367]
10 to 99.9 | O=C(c1ccc(C[C@@H]2CC[C@H]([C@H](O)c3ccccc3)N2)cc1)N1CCN(c2nccc(-c3ccccc3)n2)CC1 [Example 376]
10 to 99.9 | O=C(c1ccc(C[C@@H]2CC[C@H]([C@H](O)c3ccccc3)N2)cc1)N1CCN(Cc2ccon2)CC1 [Example 393]
10 to 99.9 | O=C(c1ccc(C[C@@H]2CC[C@H]([C@H](O)c3ccccc3)N2)cc1)N1CCN(c2nccc3ccccc23)CC1 [Example 373]
10 to 99.9 | COc1cccnc1CN1CCN(C(=O)c2ccc(C[C@@H]3CC[C@H]([C@H](O)c4ccccc4)N3)cc2)CC1 [Example 414]
100 to 999 | Cc1cc(C)nc(N2CCN(C(=O)c3ccc(C[C@@H]4CC[C@H]([C@H](O)c5ccccc5)N4)cc3)CC2)n1 [Example 372]

same assay, conditions: Table 10; Beta-3 agonist in vitro functional assay; read-out: Human β3 agonist functional activity

EC50 [nM] | Compound
< 1 | CC(C(=O)N1CCc2nc(C3CC3)sc2C1)N1CCN(C(=O)c2ccc(C[C@@H]3CC[C@H]([C@H](O)c4ccccc4)N3)cc2)CC1 (stereo partly shown) [Example 505]
10 to 99.9 | CC(C(=O)N1CCC(C2CC2)CC1)N1CCN(C(=O)c2ccc(C[C@@H]3CC[C@H]([C@H](O)c4ccccc4)N3)cc2)CC1 (stereo partly shown) [Example 494]
1 to 9.9 | CC(C(=O)NCC1(C)CCC1)N1CCN(C(=O)c2ccc(C[C@@H]3CC[C@H]([C@H](O)c4ccccc4)N3)cc2)CC1 (stereo partly shown) [Example 453]
10 to 99.9 | CC(C(=O)N1CCCCC1)N1CCN(C(=O)c2ccc(C[C@@H]3CC[C@H]([C@H](O)c4ccccc4)N3)cc2)CC1 (stereo partly shown) [Example 484]
10 to 99.9 | CC(C(=O)N1C[C@H](F)[C@@H](F)C1)N1CCN(C(=O)c2ccc(C[C@@H]3CC[C@H]([C@H](O)c4ccccc4)N3)cc2)CC1 (stereo partly shown) [Example 476]
10 to 99.9 | CC(C(=O)N1Cc2cccnc2C1)N1CCN(C(=O)c2ccc(C[C@@H]3CC[C@H]([C@H](O)c4ccccc4)N3)cc2)CC1 (stereo partly shown) [Example 482]
10 to 99.9 | CC(C(=O)N1CCCC2(CCO2)C1)N1CCN(C(=O)c2ccc(C[C@@H]3CC[C@H]([C@H](O)c4ccccc4)N3)cc2)CC1 (stereo partly shown) [Example 495]
100 to 999 | CC(C(=O)N1CCC(O)C1)N1CCN(C(=O)c2ccc(C[C@@H]3CC[C@H]([C@H](O)c4ccccc4)N3)cc2)CC1 (stereo partly shown) [Example 477]
100 to 999 | CC(C(=O)N(C)CCO)N1CCN(C(=O)c2ccc(C[C@@H]3CC[C@H]([C@H](O)c4ccccc4)N3)cc2)CC1 (stereo partly shown) [Example 519]
10 to 99.9 | CC(C(=O)NCC1(O)CC1)N1CCN(C(=O)c2ccc(C[C@@H]3CC[C@H]([C@H](O)c4ccccc4)N3)cc2)CC1 (stereo partly shown) [Example 449]

same assay, conditions: Table 11; cAMP, CHO cells; read-out: Human β3 agonist functional activity

EC50 [nM] | Compound
100 to 999 | C[C@@H](c1ccccn1)N1CC2CC1CN2C(=O)c1ccc(C[C@@H]2CC[C@H]([C@H](O)c3ccccc3)N2)cc1 (stereo partly shown) [Example 538]
10 to 99.9 | C[C@H]1CN(C(=O)c2ccc(C[C@@H]3CC[C@H]([C@H](O)c4ccccc4)N3)cc2)CCN1Cc1n[nH]c2ccccc12 [Example 532]
100 to 999 | C[C@@H]1CN(C(=O)c2ccc(C[C@@H]3CC[C@H]([C@H](O)c4ccccc4)N3)cc2)C[C@H](C)N1Cc1ccccn1 [Example 533]

Compound | EC50 [nM]
O=C(c1ccc(C[C@@H]2CC[C@H]([C@H](O)c3ccccc3)N2)cc1)N1C2CCC1CN(c1nccs1)C2 [Example 543] | 10 to 99.9

same assay, conditions: Table 12; human β3 functional activity given as ranges; read-out: Human β3 agonist functional activity

EC50 [nM] | Compound
1 to 9.9 | O=C(c1ccc(CC2CCC(C(O)c3ccccc3)N2)cc1)N1CCC2(CC1)CC(C(F)(F)F)OC2=O (single isomer, unassigned) [Example 565]
100 to 999 | O=C1CC(c2ccccc2)C2(CCN(C(=O)c3ccc(CC4CCC(C(O)c5cccnc5)N4)cc3)CC2)O1 (single isomer, unassigned) [Example 559]
1 to 9.9 | CC(C)C1CC2(CCN(C(=O)c3ccc(CC4CCC(C(O)c5ccccc5)N4)cc3)CC2)C(=O)O1 (single isomer, unassigned) [Example 567]
1 to 9.9 | CC(C)(C)C1CC2(CCN(C(=O)c3ccc(CC4CCC(C(O)c5ccccc5)N4)cc3)CC2)C(=O)O1 (single isomer, unassigned) [Example 570]

same assay, conditions: human β3 functional activity

Compound | EC50 [nM]
C[C@H](c1ccccn1)N1C2CCC1C1CCC2N1C(=O)c1ccc(C[C@@H]2CC[C@H]([C@H](O)c3ccccc3)N2)cc1 [Example 525] | 10 to 99.9
